The results in this text go back to US9926282B2, “Phthalazinones and isoquinolinones as rock inhibitors” (BRISTOL-MYERS SQUIBB COMPANY, priority 2013, dated 2018).

Where two headings read alike, the source gives them in different places.

Assay [1] concerns the target ROCK2 (Homo sapiens (Human), UniProt O75116). The assay can be described thus: ROCK assay (LABCHIP peptide phosphorylation), ROCK2. It is filed as biochemical. As to conditions: 5 μM ATP, 1.5 μM peptide substrate.
The target of assay [2] is ROCK1 (Homo sapiens (Human), UniProt Q13464). The assay can be described thus: ROCK assay (LABCHIP peptide phosphorylation), ROCK1. It is filed as biochemical.
Setting [3] is: 5 μM ATP, 1.5 μM peptide substrate, read-out: ROCK1 IC50.

Chain of ROCK2 (O75116 whole entry, species assumed): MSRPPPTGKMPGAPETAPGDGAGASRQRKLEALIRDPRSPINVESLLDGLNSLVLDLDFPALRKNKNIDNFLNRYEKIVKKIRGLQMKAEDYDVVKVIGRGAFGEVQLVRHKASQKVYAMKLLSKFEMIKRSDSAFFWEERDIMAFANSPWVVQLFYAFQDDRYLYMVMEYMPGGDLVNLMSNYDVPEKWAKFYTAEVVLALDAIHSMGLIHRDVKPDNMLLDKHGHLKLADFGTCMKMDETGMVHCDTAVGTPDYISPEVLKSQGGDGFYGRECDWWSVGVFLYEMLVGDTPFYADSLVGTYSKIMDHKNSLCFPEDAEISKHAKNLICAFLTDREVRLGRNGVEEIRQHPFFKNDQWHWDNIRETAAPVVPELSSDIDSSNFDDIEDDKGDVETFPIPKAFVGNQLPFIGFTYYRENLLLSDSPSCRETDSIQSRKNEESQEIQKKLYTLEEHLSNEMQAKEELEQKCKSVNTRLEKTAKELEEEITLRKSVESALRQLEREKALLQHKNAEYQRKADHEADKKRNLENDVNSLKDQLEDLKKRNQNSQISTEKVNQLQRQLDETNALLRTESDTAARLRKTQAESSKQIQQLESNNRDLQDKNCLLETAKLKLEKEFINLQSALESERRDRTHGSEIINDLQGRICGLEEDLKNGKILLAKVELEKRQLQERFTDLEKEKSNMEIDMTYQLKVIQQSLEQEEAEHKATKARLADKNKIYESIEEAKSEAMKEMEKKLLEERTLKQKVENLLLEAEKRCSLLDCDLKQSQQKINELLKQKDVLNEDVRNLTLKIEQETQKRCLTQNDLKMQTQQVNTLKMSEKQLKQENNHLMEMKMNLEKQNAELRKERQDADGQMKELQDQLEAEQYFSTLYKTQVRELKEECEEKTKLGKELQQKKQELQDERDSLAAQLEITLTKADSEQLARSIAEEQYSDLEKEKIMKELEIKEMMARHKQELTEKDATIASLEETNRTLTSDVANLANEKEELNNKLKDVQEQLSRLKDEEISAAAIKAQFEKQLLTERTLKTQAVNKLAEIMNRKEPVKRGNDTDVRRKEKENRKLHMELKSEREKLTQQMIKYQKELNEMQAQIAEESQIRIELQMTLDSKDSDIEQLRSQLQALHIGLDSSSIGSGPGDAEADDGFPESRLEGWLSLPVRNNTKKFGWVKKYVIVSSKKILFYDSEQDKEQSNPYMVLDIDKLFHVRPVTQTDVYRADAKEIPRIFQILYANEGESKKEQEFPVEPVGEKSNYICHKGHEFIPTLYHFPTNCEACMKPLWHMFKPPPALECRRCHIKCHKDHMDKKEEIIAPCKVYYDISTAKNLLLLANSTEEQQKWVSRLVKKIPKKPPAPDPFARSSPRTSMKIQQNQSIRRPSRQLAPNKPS
Chain of ROCK1 (Q13464 whole entry, species assumed): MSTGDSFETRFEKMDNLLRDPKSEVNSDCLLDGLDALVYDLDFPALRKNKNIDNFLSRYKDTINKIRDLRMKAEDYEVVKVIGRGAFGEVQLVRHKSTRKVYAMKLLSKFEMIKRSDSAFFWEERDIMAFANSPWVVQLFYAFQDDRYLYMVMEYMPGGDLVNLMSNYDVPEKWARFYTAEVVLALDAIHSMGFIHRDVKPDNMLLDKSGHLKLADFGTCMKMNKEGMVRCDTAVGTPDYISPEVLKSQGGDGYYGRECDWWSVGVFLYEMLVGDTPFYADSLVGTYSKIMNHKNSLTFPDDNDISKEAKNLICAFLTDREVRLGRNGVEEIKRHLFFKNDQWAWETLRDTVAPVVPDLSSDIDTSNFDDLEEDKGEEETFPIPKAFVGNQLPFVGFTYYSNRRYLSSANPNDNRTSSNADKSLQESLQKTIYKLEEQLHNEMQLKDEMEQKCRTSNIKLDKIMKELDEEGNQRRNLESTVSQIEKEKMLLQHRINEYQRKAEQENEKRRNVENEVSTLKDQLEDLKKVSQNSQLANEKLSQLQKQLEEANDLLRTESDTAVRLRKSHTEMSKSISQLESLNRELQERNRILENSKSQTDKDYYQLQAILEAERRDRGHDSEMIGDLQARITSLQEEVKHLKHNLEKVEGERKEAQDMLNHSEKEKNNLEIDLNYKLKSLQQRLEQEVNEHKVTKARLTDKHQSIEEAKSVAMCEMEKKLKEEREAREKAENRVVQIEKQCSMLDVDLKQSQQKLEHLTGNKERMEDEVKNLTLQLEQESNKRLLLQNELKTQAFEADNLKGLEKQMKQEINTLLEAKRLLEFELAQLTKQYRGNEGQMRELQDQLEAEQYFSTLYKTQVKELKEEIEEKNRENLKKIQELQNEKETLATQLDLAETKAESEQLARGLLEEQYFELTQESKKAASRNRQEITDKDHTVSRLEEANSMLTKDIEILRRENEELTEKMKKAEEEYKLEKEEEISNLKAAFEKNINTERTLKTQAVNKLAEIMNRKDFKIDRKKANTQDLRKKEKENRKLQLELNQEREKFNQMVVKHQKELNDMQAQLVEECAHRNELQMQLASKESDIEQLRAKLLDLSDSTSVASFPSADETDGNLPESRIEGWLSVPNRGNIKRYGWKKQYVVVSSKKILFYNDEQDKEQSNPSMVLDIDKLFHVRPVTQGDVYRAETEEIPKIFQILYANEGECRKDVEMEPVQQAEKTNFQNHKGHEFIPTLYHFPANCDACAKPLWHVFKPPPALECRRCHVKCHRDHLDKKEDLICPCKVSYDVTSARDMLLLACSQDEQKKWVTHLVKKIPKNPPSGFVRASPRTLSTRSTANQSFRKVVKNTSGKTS

For `O=C(Nc1ccc(-c2n[nH]c(=O)c3ccccc23)cc1)C1CC(=O)N(c2cccc(Cl)c2F)C1` (stereo not drawn) [Example 211, 1-(3-chloro-2-fluorophenyl)-5-oxo-N-[4-(4-oxo-3,4-dihydrophthalazin-1-yl)phenyl]pyrrolidine-3-carboxamide], the IC50 (usually the concentration needed to halve the response being measured) is 101 to 1000 nM in assay [1] and 1000 to 50000 nM in assay [2] (setting [3]).

On to `CCCc1c(C(=O)Nc2ccc(-c3n[nH]c(=O)c4ccccc34)cc2)nnn1-c1ccccc1` [Example 231, N-[4-(4-oxo-3,4-dihydrophthalazin-1-yl)phenyl]-1-phenyl-5-propyl-1H-1,2,3-triazole-4-carboxamide], for which the IC50 was in the range of 0.1 to 100 nM in assay [1] and 101 to 1000 nM in assay [2] (setting [3]).

Take `Cc1c(C(=O)Nc2ccc(-c3n[nH]c(=O)c4ccccc34)cc2)cnn1-c1cccc(Cl)c1F` [Example 202, 1-(3-chloro-2-fluorophenyl)-5-methyl-N-[4-(4-oxo-3,4-dihydrophthalazin-1-yl)phenyl]-1H-pyrazole-4-carboxamide]: the concentration for half-maximal inhibition (IC50) in assay [1] and in assay [2] (setting [3]) was 0.1 to 100 nM throughout.

On to `O=C(Nc1ccc(-c2c[nH]c(=O)c3ccccc23)cc1)c1ccc(N2CCCCC2)cc1` [Example 249, N-(4-(1-Oxo-1,2-dihydroisoquinolin-4-yl)phenyl)-4-(piperidin-1-yl)benzamide], for which the IC50 in assay [1] and in assay [2] (setting [3]) was 0.1 to 100 nM throughout.

`O=C(O)COc1ccc2c(c1)N(C(=O)Cc1ccc(-c3n[nH]c(=O)c4ccccc34)cc1)CC2` [Example 290, 2-((1-(2-(4-(4-Oxo-3,4-dihydrophthalazin-1-yl)phenyl)acetyl)indolin-6-yl)oxy)acetic Acid]: the IC50 in assay [1] and in assay [2] (setting [3]) was 0.1 to 100 nM each time.

In the case of `CC(C)(O)COc1ccn2ncc(C(=O)Nc3ccc(-c4n[nH]c(=O)c5ccccc45)cc3)c2c1` [Example 181, 5-(2-hydroxy-2-methylpropoxy)-N-[4-(4-oxo-3,4-dihydrophthalazin-1-yl)phenyl]pyrazolo[1,5-a]pyridine-3-carboxamide], the IC50 in assay [1] was 0.1 to 100 nM; in assay [2] (setting [3]), 101 to 1000 nM.

For the molecule `COCCOc1ccn2ncc(C(=O)Nc3ccc(-c4n[nH]c(=O)c5ccccc45)cc3)c2c1` [Example 184, 5-(2-methoxyethoxy)-N-[4-(4-oxo-3,4-dihydrophthalazin-1-yl)phenyl]pyrazolo[1,5-a]pyridine-3-carboxamide], the IC50 in assay [1] and in assay [2] (setting [3]) was 0.1 to 100 nM each time.

`O=c1[nH]nc(-c2ccc(Nc3nncc4ccccc34)cc2)c2ccccc12` [Example 85, 4-(4-(Phthalazin-1-ylamino)phenyl)phthalazin-1(2H)-one]: the IC50 in assay [1] and in assay [2] (setting [3]) was 0.1 to 100 nM throughout.

For `Cc1c(C(=O)Nc2ccc(-c3n[nH]c(=O)c4ccccc34)cc2)nnn1-c1ccccc1F` [Example 222, 1-(2-fluorophenyl)-5-methyl-N-[4-(4-oxo-3,4-dihydrophthalazin-1-yl)phenyl]-1H-1,2,3-triazole-4-carboxamide], the IC50 in assay [1] and in assay [2] (setting [3]) was 0.1 to 100 nM throughout.

As to `Cc1c(C(=O)Nc2ccc(-c3n[nH]c(=O)c4ccccc34)cc2)cnn1-c1ccccc1` [Example 189, 5-methyl-N-[4-(4-oxo-3,4-dihydrophthalazin-1-yl)phenyl]-1-phenyl-1H-pyrazole-4-carboxamide], the IC50 in assay [1] and in assay [2] (setting [3]) was 0.1 to 100 nM throughout.

As for `O=C(Nc1ccc(-c2n[nH]c(=O)c3ccccc23)c(Cl)c1)c1cnc2ccccn12` [Example 317, N-[3-chloro-4-(4-oxo-3,4-dihydrophthalazin-1-yl)phenyl]imidazo[1,2-a] pyridine-3-carboxamide], the IC50 in assay [1] and in assay [2] (setting [3]) was 0.1 to 100 nM in each case.

`CC(C(=O)N1CCc2ccccc21)c1ccc(-c2n[nH]c(=O)c3ccccc23)cc1` (stereo not drawn) [Example 42, 4-(4-(1-(Indolin-1-yl)-1-oxopropan-2-yl)phenyl)phthalazin-1(2H)-one]: the half-maximal inhibitory concentration (IC50) was 0.1 to 100 nM in assay [1] and 1000 to 50000 nM in assay [2] (setting [3]).

With `COC(=O)COc1ccc2c(c1)N(C(=O)Cc1ccc(-c3n[nH]c(=O)c4ccccc34)cc1)CC2` [Example 283, methyl 2-[(1-{2-[4-(4-oxo-3,4-dihydrophthalazin-1-yl)phenyl]acetyl}-2,3-dihydro-1H-indol-6-yl)oxy]acetate], the IC50 in assay [1] and in assay [2] (setting [3]) was 0.1 to 100 nM each time.

As for `Cc1cc(CC(=O)N2Cc3ccccc3C2)ccc1-c1c[nH]c(=O)c2ccccc12` [Example 263, 4-(4-(2-(Isoindolin-2-yl)-2-oxoethyl)-2-methylphenyl)isoquinolin-1(2H)-one], the IC50 in assay [1] was in the range of 0.1 to 100 nM; in assay [2] (setting [3]) it was 101 to 1000 nM.

With `Cc1cc(NC(=O)c2c(C)nc3ccccn23)ccc1-c1n[nH]c(=O)c2ccccc12` [Example 311, 2-methyl-N-[3-methyl-4-(4-oxo-3,4-dihydrophthalazin-1-yl)phenyl]imidazo[1,2-a] pyridine-3-carboxamide], the IC50 in assay [1] and in assay [2] (setting [3]) was 0.1 to 100 nM throughout.

For the molecule `O=C(Nc1ccc(-c2n[nH]c(=O)c3ccccc23)cc1)c1cnn(-c2ccc(Cl)cc2)c1` [Example 388, 1-(4-Chlorophenyl)-N-(4-(4-oxo-3,4-dihydrophthalazin-1-yl)phenyl)-1H-pyrazole-4-carboxamide], the figures for the IC50 in assay [1] and in assay [2] (setting [3]) were 0.1 to 100 nM and 101 to 1000 nM, respectively.

For `COc1ccccc1N1CCC(C(=O)Nc2ccc(-c3n[nH]c(=O)c4ccccc34)cc2)C1=O` (stereo not drawn) [Example 216, 1-(2-methoxyphenyl)-2-oxo-N-[4-(4-oxo-3,4-dihydrophthalazin-1-yl)phenyl]pyrrolidine-3-carboxamide], the IC50 in assay [1] lay in the range of 101 to 1000 nM; in assay [2] (setting [3]), 1000 to 50000 nM.

Take `CC(O)COc1ccn2ncc(C(=O)Nc3ccc(-c4n[nH]c(=O)c5ccccc45)cc3)c2c1` (stereo not drawn) [Example 185, 5-(2-hydroxypropoxy)-N-[4-(4-oxo-3,4-dihydrophthalazin-1-yl)phenyl]pyrazolo[1 5-a]pyridine-3-carboxamide]: the IC50 in assay [1] and in assay [2] (setting [3]) was 0.1 to 100 nM in each case.

For `Cc1cc(NC(=O)c2nn(CC3CCN(CCCCO)CC3)c3ccccc23)ccc1-c1n[nH]c(=O)c2ccccc12` [Example 321, 1-((1-(4-Hydroxybutyl)piperidin-4-yl)methyl)-N-(3-methyl-4-(4-oxo-3,4-dihydrophthalazin-1-yl)phenyl)-1H-indazole-3-carboxamide], the IC50 in assay [1] lay in the range of 101 to 1000 nM; in assay [2] (setting [3]), 0.1 to 100 nM.

As for `O=C(Cc1ccc(-c2n[nH]c(=O)c3ccccc23)cc1)N1CCc2ccc(OCc3ccncc3)cc21` [Example 272, 4-(4-{2-oxo-2-[6-(pyridin-4-ylmethoxy)-2,3-dihydro-1H-indol-1-yl]ethyl}phenyl)-1,2-dihydrophthalazin-1-one], the IC50 in assay [1] and in assay [2] (setting [3]) was 0.1 to 100 nM each time.

For `O=C(Nc1ccc(-c2n[nH]c(=O)c3ccccc23)cc1)c1cnn2ccc(OCCN3CCCC3)cc12` [Example 183, N-[4-(4-oxo-3,4-dihydrophthalazin-1-yl)phenyl]-5-[2-(pyrrolidin-1-yl)ethoxy]pyrazolo[1,5-a]pyridine-3-carboxamide], the IC50 in assay [1] and in assay [2] (setting [3]) was 0.1 to 100 nM in each case.

For `O=C(Nc1ccc(-c2n[nH]c(=O)c3ccccc23)cc1)c1c2ccccc2nn1CC1COC1` [Example 143, 2-(oxetan-3-ylmethyl)-N-[4-(4-oxo-3,4-dihydrophthalazin-1-yl)phenyl]-2H-indazole-3-carboxamide], the IC50 in assay [1] and in assay [2] (setting [3]) was 1000 to 50000 nM each time.

As to `CN1CCN(Cc2ccc3c(c2)CN(C(=O)Oc2ccc(-c4n[nH]c(=O)c5ccccc45)cc2)C3)CC1` [Example 72, 4-(4-Oxo-3,4-dihydrophthalazin-1-yl)phenyl 5-((4-methylpiperazin-1-yl)methyl)isoindoline-2-carboxylate], the values for the IC50 in assay [1] and in assay [2] were 0.1 to 100 nM and 101 to 1000 nM, respectively.

In the case of `O=C(Cc1ccc(-c2n[nH]c(=O)c3ccccc23)cc1)N1CCc2ccc(O[C@H]3CCOC3)cc21` [Example 275, 4-[4-(2-oxo-2-(6-[(3S)-oxolan-3-yloxy]-2,3-dihydro-1H-indol-1-yl}ethyl)phenyl]-1,2-dihydrophthalazin-1-one], the IC50 in assay [1] and in assay [2] (setting [3]) was 0.1 to 100 nM in each case.

Take `COc1ccc2cc(C(=O)Nc3ccc(-c4n[nH]c(=O)c5ccccc45)cc3)n(C)c2c1` [Example 127, 6-methoxy-1-methyl-N-[4-(4-oxo-3,4-dihydrophthalazin-1-yl)phenyl]-1H-indole-2-carboxamide]: the IC50 in assay [1] and in assay [2] (setting [3]) was 0.1 to 100 nM each time.

With `CN(C)c1cccc(C(=O)Nc2ccc(-c3c[nH]c(=O)c4ccccc34)cc2)c1` [Example 244, 3-(Dimethylamino)-N-[4-(1-oxo-1,2-dihydroisoquinolin-4-yl)phenyl]benzamide], the IC50 in assay [1] and in assay [2] (setting [3]) was 0.1 to 100 nM in each case.

For the molecule `O=C(Cc1ccc(-c2n[nH]c(=O)c3ccccc23)cc1)N1CCc2ccc(C(F)(F)F)cc21` [Example 35, 4-(4-{2-oxo-2-[6-(trifluoromethyl)-2,3-dihydro-1H-indol-1-yl]ethyl}phenyl)-1,2-dihydrophthalazin-1-one], the IC50 in assay [1] was in the range of 0.1 to 100 nM; in assay [2] (setting [3]), 101 to 1000 nM.

Regarding `Cc1ccc2[nH]c(C(=O)Nc3ccc(-c4n[nH]c(=O)c5ccccc45)cc3)cc2c1` [Example 101, 5-methyl-N-[4-(4-oxo-3,4-dihydrophthalazin-1-yl)phenyl]-1H-indole-2-carboxamide], the IC50 in assay [1] and in assay [2] (setting [3]) was 0.1 to 100 nM each time.

With “2-[4-(4-oxo-3,4- dihydrophthalazin-1- yl)phenyl]-N-[(1S,2R)- 2-phenylcyclopropyl] acetamide [Example 18]”, the IC50 in assay [1] and in assay [2] (setting [3]) was 1000 to 50000 nM in each case.

As for `O=C(Nc1ccc(-c2n[nH]c(=O)c3ccccc23)cc1)c1cnn2ccccc12` [Example 103, N-[4-(4-oxo-3,4-dihydrophthalazin-1-yl)phenyl]pyrazolo[1,5-a]pyridine-3-carboxamide], the IC50 in assay [1] and in assay [2] (setting [3]) was 0.1 to 100 nM throughout.
